We go through 60 molecules from patent publication US20230279020A9, “CARM1 INHIBITORS AND USES THEREOF” (Epizyme, Inc., priority 2013, published 2023).

pIC50: −log10 of the molar value.

Chain of Human CARM1 (PRMT4) (Q86X55 other isoform, or with tags, fused parts or gaps isoform Q86X55-1): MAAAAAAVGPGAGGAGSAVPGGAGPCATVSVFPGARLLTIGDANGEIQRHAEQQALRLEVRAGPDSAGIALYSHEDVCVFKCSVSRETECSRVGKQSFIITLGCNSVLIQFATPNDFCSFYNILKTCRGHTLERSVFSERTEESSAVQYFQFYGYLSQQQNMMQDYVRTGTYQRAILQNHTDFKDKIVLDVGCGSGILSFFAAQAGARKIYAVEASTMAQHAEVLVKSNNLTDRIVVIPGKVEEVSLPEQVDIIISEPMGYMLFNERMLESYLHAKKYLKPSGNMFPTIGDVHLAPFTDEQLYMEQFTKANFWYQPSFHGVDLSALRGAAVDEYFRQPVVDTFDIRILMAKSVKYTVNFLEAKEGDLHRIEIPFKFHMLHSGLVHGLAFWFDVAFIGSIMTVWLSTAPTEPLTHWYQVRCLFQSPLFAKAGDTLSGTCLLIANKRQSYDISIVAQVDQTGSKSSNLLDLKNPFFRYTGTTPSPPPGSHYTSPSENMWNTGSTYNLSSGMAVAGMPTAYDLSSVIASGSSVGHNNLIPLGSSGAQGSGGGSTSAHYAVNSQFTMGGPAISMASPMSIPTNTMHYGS

The assay concerns the target Human CARM1 (PRMT4) (Homo sapiens (Human), UniProt Q86X55). Kind of assay: CARM1 enzyme assay on peptide substrate (3H-SAM Flashplate). The conditions noted are these: Biochemical potencies, classification codes; read-out: Biochem IC50.
As usually defined, the pIC50 is −log10 of the IC50, conventionally taken in molar units. For the molecule `CCOC(=O)N1CCC[C@@H]1COc1nc(-c2cc(OC[C@H](O)CNC)ccc2Cl)nc(-c2c(C)noc2C)c1C` [Example 133-3], the pIC50 is over 7.00.

For `CNCC(O)COc1cccc(-c2nc(-c3c(C)noc3C)c(C)c(N3CCN(C(=O)OCCOC)CC3)n2)c1` (stereo not drawn) [Example 134-1a], the pIC50 was over 7.00.

For `CNC[C@@H](O)COc1ccc(Cl)c(-c2nc(NC[C@H]3COCCN3C(=O)OC(C)C)c(C)c(-c3c(C)noc3C)n2)c1` [Example 134-3], the pIC50 was over 7.00.

Regarding `CNCC(O)COc1cccc(-c2nc(N[C@H]3CC[C@H](O)C3)c(C)c(-c3c(C)noc3C)n2)c1` (stereo partly drawn) [Example 135-1a], the pIC50 is over 7.00.

As to `CNC[C@@H](O)COc1ccc(Cl)c(-c2nc(N[C@@H]3CCN(C(=O)OC)[C@H](C)C3)c(C)c(-c3c(C)noc3C)n2)c1` [Example 135-3], the pIC50 is over 7.00.

As for `CNCC(O)COc1cc(NC)cc(-c2nc(NC3CCOCC3)c(C)c(-c3c(C)noc3C)n2)c1` (stereo not drawn) [Example 136-1a], the pIC50 is over 7.00.

Regarding `CCOC(=O)N1CCC[C@@H]1CCNc1nc(-c2cc(OC[C@H](O)CNC)ccc2Cl)nc(-c2c(C)noc2C)c1C` [Example 136-3], the pIC50 is over 7.00.

As for `CNCC(O)COc1ccc(Cl)c(-c2nc(NC3(C)CCOCC3)c(Cl)c(-c3c(C)noc3C)n2)c1` (stereo not drawn) [Example 137-1a], the pIC50 is over 7.00.

`CCOC(=O)N1CCC[C@H]1CCNc1nc(-c2cc(OC[C@H](O)CNC)ccc2Cl)nc(-c2c(C)noc2C)c1C` [Example 137-3]: the pIC50 was over 7.00.

Consider `CNC[C@H](O)COc1ccc(Cl)c(-c2nc(-c3c(C)noc3C)c(C)c(N3CCC4(CCN(C5CC5)C4)C3)n2)c1` (stereo partly drawn) [Example 138-1a], for which the pIC50 was over 7.00.

In the case of `CNC[C@@H](O)COc1ccc(Cl)c(-c2nc(-c3c(C)noc3C)c(C)c(N3CCC4(CCN(C5CC5)C4)C3)n2)c1` (stereo partly drawn) [Example 138-3], the pIC50 is over 7.00.

In the case of `CNCC(O)COc1cccc(-c2nc(-c3c(C)noc3C)cc(N3CCN(CCOC)CC3)n2)c1` (stereo not drawn) [Example 139-1a], the pIC50 is over 7.00.

As to `CNC[C@@H](O)COc1ccc(Cl)c(-c2nc(N[C@@H]3CCN(C4CC4)[C@H](C)C3)c(C)c(-c3c(C)noc3C)n2)c1` [Example 139-3], the pIC50 was over 7.00.

As to `CNCC(O)COc1cccc(-c2nc(NCC3(N(C)C)CCOCC3)c(C)c(-c3c(C)noc3C)n2)c1` (stereo not drawn) [Example 140-1a], the pIC50 is over 7.00.

For `CNC[C@@H](O)COc1ccc(Cl)c(-c2nc(-c3c(C)noc3C)c(C)c(N3Cc4cnn(C)c4C3)n2)c1` [Example 140-3], the pIC50 was over 7.00.

`CCC1(CNc2nc(-c3cccc(OCC(O)CNC)c3)nc(-c3c(C)noc3C)c2C)CCOCC1` (stereo not drawn) [Example 141-1a]: the pIC50 is over 7.00.

As for `CNC[C@@H](O)COc1ccc(Cl)c(-c2nc(-c3c(C)noc3C)c(C)c(N3CCc4nc(C)sc4C3)n2)c1` [Example 141-3], the pIC50 was over 7.00.

Regarding `CNCC(O)COc1cccc(-c2nc(NCC3CCOCC3)c(Cl)c(-c3c(C)noc3C)n2)c1` (stereo not drawn) [Example 142-1a], the pIC50 is over 7.00.

For `CNC[C@@H](O)COc1ccc(Cl)c(-c2nc(-c3c(C)noc3C)c(C)c(N3Cc4nccnc4C3)n2)c1` [Example 142-3], the pIC50 is over 7.00.

Take `CNCC(O)COc1cccc(-c2nc(NCC3CCOCC3)c(F)c(-c3c(C)noc3C)n2)c1` (stereo not drawn) [Example 143-1a]: the pIC50 is over 7.00.

As for `CNC[C@@H](O)COc1ccc(Cl)c(-c2nc(N[C@H]3C[C@H](OC)C3)c(C)c(-c3c(C)noc3C)n2)c1` [Example 143-3], the pIC50 was over 7.00.

As for `CNCC(O)COc1cccc(-c2nc(-c3c(C)noc3C)cc(N3CCN(CC(F)(F)F)[C@H](C)C3)n2)c1` (stereo partly drawn) [Example 144-1a], the pIC50 is over 7.00.

`CNC[C@@H](O)COc1ccc(Cl)c(-c2nc(N[C@H]3C[C@@H](OC)C3)c(C)c(-c3c(C)noc3C)n2)c1` [Example 144-3]: the pIC50 was over 7.00.

On to `CNCC(O)COc1cccc(-c2nc(-c3c(C)noc3C)cc(N3CCN(CCF)[C@H](C)C3)n2)c1` (stereo partly drawn) [Example 145-1a], for which the pIC50 is over 7.00.

For `CNCC(O)COc1cccc(-c2nc(NC3CCOCC3)c(C)c(-c3c(C)noc3CO)n2)c1` (stereo not drawn) [Example 145-3], the pIC50 was over 7.00.

Regarding `CNCC(O)COc1cccc(-c2nc(-c3c(C)noc3C)cc(N3CCN(C(=O)N(C)C)[C@H](C)C3)n2)c1` (stereo partly drawn) [Example 146-1a], the pIC50 is over 7.00.

As to `CNC[C@@H](O)COc1ccc(Cl)c(-c2nc(NC3CC4(C3)CN(C(=O)OC)C4)c(C)c(-c3c(C)noc3C)n2)c1` [Example 146-3], the pIC50 was over 7.00.

Regarding `CNCC(O)COc1cccc(-c2nc(-c3c(C)noc3C)cc(N3CCN(S(C)(=O)=O)[C@H](C)C3)n2)c1` (stereo partly drawn) [Example 147-1a], the pIC50 is over 7.00.

On to `CNC[C@@H](O)COc1ccc(Cl)c(-c2nc(N[C@H]3CCN(C)C[C@H]3F)c(C)c(-c3c(C)noc3C)n2)c1` [Example 147-3], for which the pIC50 was over 7.00.

For `CNCC(O)COc1cccc(-c2nc(-c3c(C)noc3C)c(C)c(N3CCO[C@@H](CN(C)C)C3)n2)c1` (stereo partly drawn) [Example 148-1a], the pIC50 was over 7.00.

Regarding `CNC[C@@H](O)COc1ccc(Cl)c(-c2nc(N[C@H]3CO[C@@H](C)C3)c(Cl)c(-c3c(C)noc3C)n2)c1` [Example 148-3], the pIC50 is over 7.00.

On to `CNCC(O)COc1cccc(-c2nc(-c3c(C)noc3C)c(C)c(N3CCO[C@@H](CN(C)C(=O)OC)C3)n2)c1` (stereo partly drawn) [Example 149-1a], for which the pIC50 was over 7.00.

Regarding `CNC[C@@H](O)COc1ccc(Cl)c(-c2nc(N[C@H]3CCO[C@@H](C)C3)c(Cl)c(-c3c(C)noc3C)n2)c1` [Example 149-3], the pIC50 is over 7.00.

`CNCC(O)COc1cccc(-c2nc(-c3c(C)noc3C)c(C)c(N3CCO[C@@H](CN(C)S(C)(=O)=O)C3)n2)c1` (stereo partly drawn) [Example 150-1a]: the pIC50 was over 7.00.

Turning to `CCOC(=O)N1CC[C@H](Nc2nc(-c3cc(OC[C@H](O)CNC)ccc3Cl)nc(-c3c(C)noc3C)c2C)C1` [Example 150-3], the pIC50 is over 7.00.

As to `CNCC(O)COc1cccc(-c2nc(-c3c(C)noc3C)c(C)c(N3CCO[C@H](CN(C)C)C3)n2)c1` (stereo partly drawn) [Example 151-1a], the pIC50 was over 7.00.

For the molecule `CCOC(=O)N1CC[C@H](Nc2nc(-c3cc(OC[C@H](O)CNC)ccc3Cl)nc(-c3c(C)noc3C)c2Cl)C1` [Example 151-3], the pIC50 is over 7.00.

Regarding `CC[C@@H]1CN(c2nc(-c3cccc(OCC(O)CNC)c3)nc(-c3c(C)noc3C)c2C)CCN1S(=O)(=O)CC` (stereo partly drawn) [Example 152-1a], the pIC50 was over 7.00.

Consider `CNC[C@@H](O)COc1ccc(Cl)c(-c2nc(N[C@H]3CO[C@@H](C)C3)c(C)c(-c3c(C)noc3C)n2)c1` [Example 152-3], for which the pIC50 is over 7.00.

In the case of `CC[C@@H]1CN(c2nc(-c3cccc(OCC(O)CNC)c3)nc(-c3c(C)noc3C)c2C)CCN1S(C)(=O)=O` (stereo partly drawn) [Example 153-1a], the pIC50 is over 7.00.

For the molecule `CCOC(=O)N1CCCC[C@@H]1CNc1nc(-c2cc(OC[C@H](O)CNC)ccc2Cl)nc(-c2c(C)noc2C)c1Cl` [Example 153-3], the pIC50 was over 7.00.

As for `CC[C@H]1CN(c2nc(-c3cccc(OCC(O)CNC)c3)nc(-c3c(C)noc3C)c2C)CCN1S(=O)(=O)CC` (stereo partly drawn) [Example 154-1a], the pIC50 was over 7.00.

`CCOC(=O)N1CCCC[C@@H]1CNc1nc(-c2cc(OC[C@H](O)CNC)ccc2Cl)nc(-c2c(C)noc2C)c1C` [Example 154-3]: the negative-log IC50 (pIC50) is over 7.00.

With `CC[C@H]1CN(c2nc(-c3cccc(OCC(O)CNC)c3)nc(-c3c(C)noc3C)c2C)CCN1S(C)(=O)=O` (stereo partly drawn) [Example 155-1a], the pIC50 was over 7.00.

`CNC[C@@H](O)COc1ccc(Cl)c(-c2nc(N[C@@H]3CCO[C@H](C)C3)c(Cl)c(-c3c(C)noc3C)n2)c1` [Example 155-3]: the pIC50 was over 7.00.

As to `CNC[C@@H](O)COc1cccc(-c2nc(-c3c(C)noc3C)c(C)c(-c3cn(S(C)(=O)=O)c4ncncc34)n2)c1` [Example 156-1a], the pIC50 is over 7.00.

In the case of `CNC[C@@H](O)COc1ccc(Cl)c(-c2nc(-c3c(C)noc3C)c(C)c(N3Cc4cc(Cl)cnc4C3)n2)c1` [Example 156-3], the pIC50 is over 7.00.

Turning to `CNCC(O)COc1cccc(-c2nc(NC(C)C3CCOCC3)c(C)c(-c3c(C)noc3C)n2)c1` (stereo not drawn) [Example 157-1a], the pIC50 is over 7.00.

`CNC[C@@H](O)COc1ccc(Cl)c(-c2nc(-c3c(C)noc3C)c(C)c(N3Cc4cc(F)cnc4C3)n2)c1` [Example 157-3]: the pIC50 is over 7.00.

For `CNC[C@@H](O)COc1ccc(Cl)c(-c2nc(-c3c(C)noc3C)c(C)c(N3CCC4(CC3)CN(C3CC3)C4)n2)c1` [Example 158-3], the pIC50 was over 7.00.

With `CNCC(O)COc1cccc(-c2nc(NC3(C)CCOCC3)c(F)c(-c3c(C)noc3C)n2)c1` (stereo not drawn) [Example 159-1a], the pIC50 was over 7.00.

As for `CNC[C@@H](O)COc1ccc(Cl)c(-c2nc(-c3c(C)noc3C)c(C)c(N3Cc4ccncc4C3)n2)c1` [Example 159-3], the pIC50 was over 7.00.

On to `CNCC(O)COc1cccc(-c2nc(C(=O)NC3CCN(C)CC3)cc(-c3c(C)noc3C)n2)c1` (stereo not drawn) [Example 160-1a], for which the pIC50 was over 7.00.

As to `CNC[C@@H](O)COc1ccc(Cl)c(-c2nc(NC[C@H]3CCCN3C(=O)OC(C)C)c(C)c(-c3c(C)noc3C)n2)c1` [Example 160-3], the pIC50 is over 7.00.

As to `CNCC(O)COc1cccc(-c2nc(-c3c(C)noc3C)c(C)c(N3CCN(C(=O)OCC(F)F)CC3)n2)c1` (stereo not drawn) [Example 161-1a], the pIC50 was over 7.00.

For the molecule `CCOC(=O)N1CCOC[C@@H]1COc1nc(-c2cc(OC[C@H](O)CNC)ccc2Cl)nc(-c2c(C)noc2C)c1C` [Example 161-3], the pIC50 is over 7.00.

With `CNCC(O)COc1cccc(-c2nc(-c3c(C)noc3C)c(C)c(N3CC[C@H](C(=O)N(C)C)C3)n2)c1` (stereo partly drawn) [Example 162-1a], the pIC50 was over 7.00.

On to `CNC[C@@H](O)COc1ccc(Cl)c(-c2nc(N[C@@H]3CO[C@@H](C)C3)c(C)c(-c3c(C)noc3C)n2)c1` [Example 162-3], for which the pIC50 was over 7.00.

As for `CNCC(O)COc1cccc(-c2nc(N[C@@H]3CC[C@H](O)C3)c(C)c(-c3c(C)noc3C)n2)c1` (stereo partly drawn) [Example 163-1a], the pIC50 is over 7.00.

With `CNC[C@@H](O)COc1ccc(Cl)c(-c2nc(-c3c(C)noc3C)c(C)c(N3CC(CO)(CO)C3)n2)c1` [Example 163-3], the pIC50 was over 7.00.
